# In US10407467B2, “Polymyxin derivatives and their use in combination therapy together with different antibiotics” (priority 2013, dated 2019):
# Bridge positions count the residues as written; N and C are the ends. Square brackets hold non-standard residues; d marks the D form. Peptide text beside a SMILES is read from it. * marks the point of attachment. ξ: configuration not given here. Thr(3ξ) = CC(O)[C@H](N)C(=O)O; Dab = NCC[C@H](N)C(=O)O; X1 = CCCCCCC(O)C(=O)*; GABA = NCCCC(=O)O
# Columns and labels:
# Acinetobacter baumannii [1] = test: MIC, sole activity (no second agent); format: cell-based
# Procedure, shortened: (§1)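 Up to four strains per species were tested in cation-adjusted Mueller-Hinton broth, with inoculum made by direct colony suspension from 18-24 hour Mueller-Hinton agar plates, adjusted to 0.5 McFarland. Duplicates differing by under 2-fold gave the lower value; greater spread voided the run. Values are relative to Polymyxin B.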
# Escherichia coli [2] = test: MIC, sole activity (no second agent); format: cell-based
# Procedure, shortened: as §1
# Pseudomonas aeruginosa [3] = test: MIC, sole activity (no second agent); format: cell-based; conditions: for MIC P. aeruginosa ATCCCRM-9027: strain ATCCCRM-9027
# Procedure, shortened: as §1
# Klebsiella pneumoniae [4] = test: MIC, sole activity (no second agent); format: cell-based; conditions: for MIC K. pneumoniae CCUG-59348: strain CCUG-59348
# Procedure, shortened: as §1
# [5] = rats, 8 mg/kg BID regimen, seven days, compared to Colistin at the same dose regimen
# Experimental: After one week acclimatisation, male Sprague-Dawley rats were surgically prepared with a jugular cannula and were housed individually, as required, either in pre-assigned housing cages or metabolic cages. Colistin and the Example Compounds were prepared in saline.
# Compounds were introduced via the jugular cannula twice a day 7 hours apart for seven days. Each dose was increased progressively for three days up to the top dose that was then administered until termination of the study. Twenty-four hour urine collection (on ice) was performed at pre-dose and on days 4 and 7. The dose regimen is set out in Table 10 below.
# The doses in the table are indicated in mg drug base/kg (free base).
# The activity in urine of the N-acetyl-beta-D-glucosaminidase (NAG) was determined spectrophotometrically using the NAG assay kit from Roche Applied Science. Biomarkers of kidney injury were determined using the Kidney Injury Panel II from the Multi-Spot® Assay System (Meso Scale Discovery).
# HK-2 cell line = test: In vitro renal cell toxicity assay (resazurin reduction); format: cell-based, human
# [6] = test system: Klebsiella pneumoniae ATCC10031; conditions: 10 mg/kg/day, neutropenic mice thigh infection
# Experimental: At 1 h, the CFU count was determined from 5 mice and the remaining mice (five per group) were treated with a subcutaneous injection of the drug at +1 and 6 hr post-infection.
# Twenty-four hours after infection, the mice were euthanized humanely. The muscle of the right thigh of each animal was harvested, homogenized, serially diluted and plated on Brain Heart Infusion agar+0.5% charcoal (w/v) for CFU determination. Decrease of the total CFU of right thigh as compared to control counts at 24 h post-infection was determined for each dose group.
# Acinetobacter baumannii [7] = test: MIC, compound in combination with a second agent (broth microdilution); format: cell-based
# Procedure, shortened: (§2)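 Read-out is the total-drug MIC of a 1:1 weight ratio combination with another agent, e.g. rifampicin. Duplicates within 2-fold gave the lower value; wider spread meant a non-valid assay. Where compounds were tested multiple times, the mode is given.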
# Escherichia coli [8] = test: as above; format: cell-based
# Procedure, shortened: as §2
# Pseudomonas aeruginosa [9] = test: as above; format: cell-based
# Procedure, shortened: as §2
# Klebsiella pneumoniae [10] = test: as above; format: cell-based; conditions: for MIC K. pneumoniae ATCC-BAA-2146: strain ATCC-BAA-2146; for MIC K. pneumoniae CCUG-59348: strain CCUG-59348; for MIC K. pneumoniae NCTC 13438: strain NCTC 13438
# Procedure, shortened: as §2
# [11] = Second Agent none (Table 7B, by row order)
# [12] = in the absence of Rifampicin, strain ATCC25922
# [13] = in the absence of Rifampicin, strain NCTC9001
# [14] = in the absence of Rifampicin, strain ATCC27853
# [15] = in the absence of Rifampicin, strain ATCC 4352
# [16] = 1:1 combination with Ciprofloxacin (by row order), total drug concentration
# [17] = 1:1 combination with Ciprofloxacin, total drug concentration
# [18] = 1:1 combination with Tigecycline, total drug concentration
# [19] = 1:1 combination with Vancomycin, total drug concentration
# [20] = 1:1 (wt:wt) combination with Rifampicin, MIC = total drug concentration
smiles,measurement,setting,value
"CCCCCCC(O)C(=O)N[C@H](C(=O)N[C@@H](CCN)C(=O)N[C@H]1CCNC(=O)[C@H]([C@@H](C)O)NC(=O)[C@H](CCN)NC(=O)[C@H](CCN)NC(=O)[C@H](CC(C)C)NC(=O)[C@@H](Cc2ccccc2)NC(=O)[C@H](CCN)NC1=O)[C@@H](C)O (stereo partly drawn) [Example 1, [2(R,S)-2-Hydroxyoctanoyl] polymyxin B nonapeptide] (X1-T[Dab][Dab][Dab][dF]L[Dab][Dab]T; lactam 3-C)",MIC A. baumannii NCTC 13424,Acinetobacter baumannii [1]; [11],4 micrograms/mL
same,MIC A. baumannii ATCCBAA-747,"Acinetobacter baumannii [1]; in the absence of Rifampicin, strain ATCCBAA-747",2 micrograms/mL
same,MIC A. baumannii NCTC 13423,"Acinetobacter baumannii [1]; in the absence of Rifampicin, strain NCTC13423",1 micrograms/mL
same,MIC E. coli NCTC9001,"Escherichia coli [2]; E. coli NCTC9001, second agent none",4 micrograms/mL
same,MIC E. coli NCTC9001,Escherichia coli [2]; Second Agent none (Table 7A),4 microgram/mL
same,MIC E. coli ATCC25922,Escherichia coli [2]; Second Agent none (Table 7B),4 micrograms/mL
same,MIC E. coli CCUG 59342,Escherichia coli [2]; Second Agent none (Table 7B),1 micrograms/mL
same,MIC E. coli NCTC9001,Escherichia coli [2]; Second Agent none (Table 7B),8 micrograms/mL
same,MIC E. coli NCTC9001,Escherichia coli [2]; Second Agent none (Table 7C),4 micrograms/mL
same,MIC E. coli ATCC25922,Escherichia coli [2]; [12],2 micrograms/mL
same,MIC E. coli NCTC9001,Escherichia coli [2]; [13],2 micrograms/mL
same,MIC P. aeruginosa CCUG 59626,"Pseudomonas aeruginosa [3]; P. aeruginosa CCUG 59626, second agent none",2 micrograms/mL
same,MIC P. aeruginosa ATCC 27853,Pseudomonas aeruginosa [3]; [11],0.5 micrograms/mL
same,MIC P. aeruginosa CCUG 59626,Pseudomonas aeruginosa [3]; [11],2 micrograms/mL
same,MIC P. aeruginosa CCUG 59626,Pseudomonas aeruginosa [3]; Second Agent none (Table 7C),2 micrograms/mL
same,MIC P. aeruginosa ATCC 27853,Pseudomonas aeruginosa [3]; [14],0.5 micrograms/mL
same,MIC P. aeruginosa ATCCCRM-9027,Pseudomonas aeruginosa [3]; in the absence of Rifampicin,0.25 micrograms/mL
same,MIC P. aeruginosa CCUG 59626,"Pseudomonas aeruginosa [3]; in the absence of Rifampicin, strain CCUG 59626",2 micrograms/mL
same,MIC K. pneumoniae ATCC BAA-1706,"Klebsiella pneumoniae [4]; K. pneumoniae ATCC BAA-1706, second agent none",4 micrograms/mL
same,MIC K. pneumoniae CCUG 59348,"Klebsiella pneumoniae [4]; K. pneumoniae CCUG 59348, second agent none",>32 micrograms/mL
same,MIC K. pneumoniae NCTC 13442,"Klebsiella pneumoniae [4]; K. pneumoniae NCTC 13442, second agent none",8 micrograms/mL
same,MIC K. pneumoniae CCUG 59348,Klebsiella pneumoniae [4]; Second Agent none (Table 7A),>32 microgram/mL
same,MIC K. pneumoniae CCUG 59626,Klebsiella pneumoniae [4]; Second Agent none (Table 7A),2 microgram/mL
same,MIC K. pneumoniae NCTC 13442,Klebsiella pneumoniae [4]; Second Agent none (Table 7A),8 microgram/mL
same,MIC K. pneumoniae CCUG 59348,Klebsiella pneumoniae [4]; Second Agent none (Table 7B),>32 micrograms/mL
same,MIC K. pneumoniae NCTC 13442,Klebsiella pneumoniae [4]; Second Agent none (Table 7B),8 micrograms/mL
same,MIC K. pneumoniae ATCC 4352,Klebsiella pneumoniae [4]; [11],1 micrograms/mL
same,MIC K. pneumoniae ATCC BAA-1706,Klebsiella pneumoniae [4]; [11],4 micrograms/mL
same,MIC K. pneumoniae CCUG 59348,Klebsiella pneumoniae [4]; Second Agent none (Table 7C),>32 micrograms/mL
same,MIC K. pneumoniae NCTC 13442,Klebsiella pneumoniae [4]; Second Agent none (Table 7C),8 micrograms/mL
same,MIC K. pneumoniae ATCC 4352,Klebsiella pneumoniae [4]; [15],1 micrograms/mL
same,MIC K. pneumoniae CCUG-59348,Klebsiella pneumoniae [4]; in the absence of Rifampicin,>32 micrograms/mL
same,"levels of the renal biomarkers NAG, albumin and cystatin C in urine",[5],significantly reduced levels
same,HK-2 toxicity (IC50) compared with PMB,HK-2 cell line,significantly increased recorded IC50 values
same,reduction in bacterial counts,[6],approx. 2 log10
same,MIC A. baumannii CCUG57249,"Acinetobacter baumannii [7]; 1:1 (wt:wt) combination with Rifampicin, MIC = total drug concentration, strain CCUG57249",0.25 micrograms/mL
same,MIC A. baumannii NCTC 13424,"Acinetobacter baumannii [7]; 1:1 (wt:wt) combination with Rifampicin, MIC = total drug concentration, strain NCTC 13424",0.25 micrograms/mL
same,MIC A. baumannii NCTC 13424,Acinetobacter baumannii [7]; [16],0.5 micrograms/mL
same,MIC E. coli NCTC9001,"Escherichia coli [8]; 1:1 (wt:wt) combination with Rifampicin, MIC = total drug concentration, strain NCTC9001",0.5 micrograms/mL
same,MIC E. coli ATCC25922,Escherichia coli [8]; [17],≤0.06 micrograms/mL
same,MIC E. coli CCUG 59342,Escherichia coli [8]; [17],2 micrograms/mL
same,MIC E. coli NCTC9001,Escherichia coli [8]; [17],≤0.06 micrograms/mL
same,MIC E. coli NCTC9001,Escherichia coli [8]; [18],4 micrograms/mL
same,MIC E. coli NCTC9001,Escherichia coli [8]; [19],4 microgram/mL
same,MIC E. coli NCTC9001,"Escherichia coli [8]; E. coli NCTC9001, 1:1 combination with Meropenem, total drug concentration",0.25 micrograms/mL
same,MIC P. aeruginosa ATCC 27853,"Pseudomonas aeruginosa [9]; 1:1 (wt:wt) combination with Rifampicin, MIC = total drug concentration, strain ATCC 27853",0.5 micrograms/mL
same,MIC P. aeruginosa ATCC-47,"Pseudomonas aeruginosa [9]; 1:1 (wt:wt) combination with Rifampicin, MIC = total drug concentration, strain ATCC-47",1 micrograms/mL
same,MIC P. aeruginosa CCUG 59626,"Pseudomonas aeruginosa [9]; 1:1 (wt:wt) combination with Rifampicin, MIC = total drug concentration, strain CCUG 59626",1 micrograms/mL
same,MIC P. aeruginosa ATCC 27853,Pseudomonas aeruginosa [9]; [16],0.125 micrograms/mL
same,MIC P. aeruginosa CCUG 59626,Pseudomonas aeruginosa [9]; [16],1 micrograms/mL
same,MIC P. aeruginosa CCUG 59626,Pseudomonas aeruginosa [9]; [18],2 micrograms/mL
same,MIC P. aeruginosa CCUG 59626,"Pseudomonas aeruginosa [9]; P. aeruginosa CCUG 59626, 1:1 combination with Meropenem, total drug concentration",2 micrograms/mL
same,MIC K. pneumoniae ATCC 4352,"Klebsiella pneumoniae [10]; 1:1 (wt:wt) combination with Rifampicin, MIC = total drug concentration, strain ATCC 4352",1 micrograms/mL
same,MIC K. pneumoniae ATCC-BAA-2146,Klebsiella pneumoniae [10]; [20],2 micrograms/mL
same,MIC K. pneumoniae CCUG-59348,Klebsiella pneumoniae [10]; [20],2 micrograms/mL
same,MIC K. pneumoniae NCTC 13438,Klebsiella pneumoniae [10]; [20],1 micrograms/mL
same,MIC K. pneumoniae ATCC 4352,Klebsiella pneumoniae [10]; [16],≤0.06 micrograms/mL
same,MIC K. pneumoniae ATCC BAA-1706,Klebsiella pneumoniae [10]; [16],0.5 micrograms/mL
same,MIC K. pneumoniae CCUG 59348,Klebsiella pneumoniae [10]; [17],32 micrograms/mL
same,MIC K. pneumoniae NCTC 13442,Klebsiella pneumoniae [10]; [17],1 micrograms/mL
same,MIC K. pneumoniae CCUG 59348,Klebsiella pneumoniae [10]; [18],>32 micrograms/mL
same,MIC K. pneumoniae NCTC 13442,Klebsiella pneumoniae [10]; [18],16 micrograms/mL
same,MIC K. pneumoniae CCUG 59348,Klebsiella pneumoniae [10]; [19],>32 microgram/mL
same,MIC K. pneumoniae CCUG 59626,Klebsiella pneumoniae [10]; [19],2 microgram/mL
same,MIC K. pneumoniae NCTC 13442,Klebsiella pneumoniae [10]; [19],8 microgram/mL
same,MIC K. pneumoniae ATCC BAA-1706,"Klebsiella pneumoniae [10]; K. pneumoniae ATCC BAA-1706, 1:1 combination with Meropenem, total drug concentration",4 micrograms/mL
same,MIC K. pneumoniae CCUG 59348,"Klebsiella pneumoniae [10]; K. pneumoniae CCUG 59348, 1:1 combination with Meropenem, total drug concentration",>32 micrograms/mL
same,MIC K. pneumoniae NCTC 13442,"Klebsiella pneumoniae [10]; K. pneumoniae NCTC 13442, 1:1 combination with Meropenem, total drug concentration",8 micrograms/mL
"CC(C)C[C@@H]1NC(=O)[C@@H](Cc2ccccc2)NC(=O)[C@H](CCN)NC(=O)[C@@H](NC(=O)[C@H](CCN)NC(=O)[C@@H](NC(=O)CCCN)C(C)O)CCNC(=O)[C@H](C(C)O)NC(=O)[C@H](CCN)NC(=O)[C@H](CCN)NC1=O (stereo partly drawn) [Example 4, 4-Aminobutanoyl polymyxin B nonapeptide] (H-[GABA][Thr(3ξ)][Dab][Dab][Dab][dF]L[Dab][Dab][Thr(3ξ)]; lactam 4-C)",MIC E. coli ATCC25922,Escherichia coli [2]; [12],2 micrograms/mL
same,MIC E. coli NCTC9001,Escherichia coli [2]; [13],8 micrograms/mL
same,MIC P. aeruginosa ATCC 27853,Pseudomonas aeruginosa [3]; [14],0.25 micrograms/mL
same,MIC P. aeruginosa ATCCCRM-9027,Pseudomonas aeruginosa [3]; in the absence of Rifampicin,0.125 micrograms/mL
same,MIC K. pneumoniae ATCC 4352,Klebsiella pneumoniae [4]; [15],1 micrograms/mL
same,MIC K. pneumoniae ATCC-BAA2146,"Klebsiella pneumoniae [4]; in the absence of Rifampicin, strain ATCC-BAA2146",>32 micrograms/mL
same,MIC K. pneumoniae CCUG-59348,Klebsiella pneumoniae [4]; in the absence of Rifampicin,>32 micrograms/mL
same,MIC K. pneumoniae NCTC-13438,"Klebsiella pneumoniae [4]; in the absence of Rifampicin, strain NCTC-13438",>32 micrograms/mL
same,"levels of the renal biomarkers NAG, albumin and cystatin C in urine",[5],significantly reduced levels
same,reduction in bacterial counts,[6],approx. 2 log10
same,MIC K. pneumoniae ATCC-BAA-2146,Klebsiella pneumoniae [10]; [20],2 micrograms/mL
same,MIC K. pneumoniae CCUG-59348,Klebsiella pneumoniae [10]; [20],16 micrograms/mL
same,MIC K. pneumoniae NCTC 13438,Klebsiella pneumoniae [10]; [20],0.5 micrograms/mL
